Assay results taken from patent publication US20100092574A1, “SYNERGISTIC PEROXIDE BASED BIOCIDAL COMPOSITIONS” (priority 2008, published 2010).

Tests used:
[1] = Residual sulfite and hydrogen peroxide content after mixing (co-stability); format: physicochemical
Experimental: Aqueous solutions containing sodium sulfite and hydrogen peroxide were mixed at 21° C. to obtain a solution having a sulfite content (as SO3^2−) of 40 ppm, a hydrogen peroxide content of 20.0 ppm and a pH of 6.7. The temperature of the solution was maintained at 21° C. and the residual sulfite and peroxide content was determined at 15, 30 and 60 minutes after mixing. The procedure consisted of adding a known amount of 1-chloro-5,5-dimethylhydantoin (MCDMH) to the samples in excess of the estimated residual sulfite content. The remaining MCDMH concentration was then measured by standard DPD total halogen methodologies. As sulfite rapidly neutralizes MCDMH at all pHs the sulfite concentration is the concentration of MCDMH added less the concentration of MCDMH measured, see Equation 1 below.
[Sulfite]=[MCDMHadded]−[MCDMHmeasured] (1)
The H2O2 concentration was determined by recording the concentration of H2O2 measured using acidic thiosulfate titration with KI indicator (HACH HYP-1 hydrogen peroxide test kit—Hach Co., Loveland, Colo.). Since this titration is run at acidic pH, this method yields the concentration of H2O2 in excess of the sulfite concentration contained in the sample. As the sulfite concentration is known from the MCMDH analysis and Equation 1, the H2O2 concentration can be calculated using the following Equation 2:
[H2O2]=[H2O2 measured]+[Sulfitecalculated] (2)
The estimated error in the methodology is ±1 ppm
The procedure of Example 1 was repeated with the difference that the pH of the mixed solution was 9.0 and the residual concentrations were determined 5, 15, 30, 60, 120 and 1080 minutes after mixing.

[2] = system: microbial population of sulfite bleached pulp slurry (total aerobic counts); experiment: Biocidal performance in sulfite bleached pulp slurry, total aerobic counts (tryptone soy agar plating); format: cell-based; conditions: for amount alone required to achieve 1 g cfu/mL reduction of 4.2: single agent; for 3 h Reduction: 3 h contact; for 24 h Reduction: 24 h contact
Source text: (§1) The expression “1 g cfu/mL” denotes the common (decadic) logarithm of the number of colony-forming units per milliliter or, in connection with the term “reduction”, the common logarithm of the quotient of the number of colony-forming units per milliliter before treatment and the number of colony-forming units after treatment. Unless otherwise indicated all concentrations in percent or ppm are expressed on a weight basis.
Synergistic biocidal performance upon co-application of sulfite with hydrogen peroxide at elevated pH was investigated. The sulfite and peroxide concentrations indicated in Table 3 below were added to an aqueous solution made from: (a) deionized water, (b) NaHCO3 to achieve a carbonate buffer concentration of 200 ppm (as CaCO3 total alkalinity), (c) sulfite bleached pulp slurry to achieve a final consistency of 0.05%, carrying an associated minimal concentration of residual sulfite of 6 ppm, and (d) NaOH to achieve a pH of 9.0.
The microbial population was that provided by preparing the pulp slurry 24-48 h prior to testing and storing at room temperature, thus allowing microbial growth to a high test level. […] Populations reported are total aerobic counts using tryptone soy agar plating.
SI=(level of A)/(efficacious level of A)+(level of B)/(efficacious level of B) (3)
Synergy upon co-application of sulfite with hydrogen peroxide at higher concentrations of sulfite and hydrogen peroxide was investigated. The conditions were the same as in Example 3.

[3] = system: Pseudomonas aeruginosa; experiment: Bactericidal efficacy of sulfite and hydrogen peroxide solutions in the absence of pulp; format: cell-based; conditions: for reduction: 50 ppm hydrogen peroxide, 3 h; for 3 h Reduction: pH 7.0, 3 h at 37° C.
Source text: as §1
The bactericidal efficacy of solutions containing sulfite and hydrogen peroxide was further investigated in the absence of pulp. Efficacy was measured against Pseudomonas aeruginosa grown in nutrient in the presence of 83 and 830 ppm sulfite. The sulfite-containing P. aeruginosa inoculum was then diluted 1:99 with Butterfield's buffer at pH 7.0. The sulfite concentrations in Table 5 below are the those in the final dilution. The dilutions were then contacted with 50 ppm hydrogen peroxide for 3 h at 37° C.

[4] = Stability of active halogen species in the presence of residual H2O2; format: physicochemical
Experimental: The stability of nitrogen-bound active halogen species in the presence of residual H2O2 was investigated. Free and total chlorine concentrations were measured by standard DPD methodology and the total H2O2 concentration by acidic […] titration. The concentration of MCDMH is the concentration of the total active halogen less the concentration of free active halogen. The concentration of H2O2 is the total oxidant concentration less the MCDMH concentration. […] The indicated reaction is shown in Equation 6.
The effect of the addition of a molar equivalent of 5,5-dimethylhydantoin (DMH) to NaOCl solutions prior to combination with hydrogen peroxide was investigated. The concentration of MCDMH is the concentration of the total active halogen less the concentration of free active halogen. The concentration of H2O2 is the total oxidant concentration less the MCDMH concentration.

[5] = pH 6.7, 21° C., start 40 ppm sulfite + 20.0 ppm H2O2, 15 min
[6] = pH 6.7, 21° C., start 40 ppm sulfite + 20.0 ppm H2O2, 30 min
[7] = pH 6.7, 21° C., start 40 ppm sulfite + 20.0 ppm H2O2, 60 min
[8] = pH 9.0, start 40 ppm sulfite + 20.0 ppm H2O2, 5 min
[9] = pH 9.0, start 40 ppm sulfite + 20.0 ppm H2O2, 15 min
[10] = pH 9.0, start 40 ppm sulfite + 20.0 ppm H2O2, 30 min
[11] = pH 9.0, start 40 ppm sulfite + 20.0 ppm H2O2, 60 min
[12] = pH 9.0, start 40 ppm sulfite + 20.0 ppm H2O2, 120 min
[13] = pH 9.0, start 40 ppm sulfite + 20.0 ppm H2O2, 1080 min
[14] = Example 3, hydrogen peroxide alone (40-160 ppm per Table 3)
[15] = Example 4, hydrogen peroxide alone at 120-160 ppm
[16] = Table 3 Test No. 4: sulfite 0 ppm, peroxide 40 ppm, pH 9.0
[17] = Table 3 Test No. 5: sulfite 0 ppm, peroxide 160 ppm, pH 9.0
[18] = Table 4 Test No. 4: sulfite 0 ppm, peroxide 120 ppm
[19] = Table 4 Test No. 5: sulfite 0 ppm, peroxide 150 ppm
[20] = Table 4 Test No. 6: sulfite 0 ppm, peroxide 160 ppm
[21] = 2.1 ppm H2O2 + 1.0 ppm DMH stabilized NaOCl, 1 min
[22] = 2.1 ppm H2O2 + 1.0 ppm DMH stabilized NaOCl, 5 min
[23] = 2.1 ppm H2O2 + 1.0 ppm DMH stabilized NaOCl, 60 min
[24] = 2.1 ppm H2O2 + 1.0 ppm NaOCl (as Cl2), 1 min
[25] = 2.1 ppm H2O2 + 1.0 ppm NaOCl (as Cl2), 5 min
[26] = 2.1 ppm H2O2 + 1.0 ppm NaOCl (as Cl2), 15 min
[27] = combination of 2.1 ppm H2O2 with 1 ppm NaOCl (as Cl2), immediate
[28] = Table 3 Test No. 2: sulfite 32 ppm, peroxide 0 ppm, pH 9.0
[29] = Table 3 Test No. 3: sulfite 128 ppm, peroxide 0 ppm, pH 9.0
[30] = Table 4 Test No. 2: sulfite 128 ppm, peroxide 0 ppm
[31] = Table 4 Test No. 3: sulfite 512 ppm, peroxide 0 ppm
[32] = 2.1 ppm H2O2 + 1.0 ppm DMH stabilized NaOCl, 15 min

Structure (SMILES): OO [hydrogen peroxide]
- H2O2 [1, 5]: 6.1 ppm
- H2O2 [1, 6]: 5.1 ppm
- H2O2 [1, 7]: 2.4 ppm
- H2O2 [1, 8]: 16.9 ppm
- H2O2 [1, 9]: 14.8 ppm
- H2O2 [1, 10]: 14.7 ppm
- H2O2 [1, 11]: 15.2 ppm
- H2O2 [1, 12]: 13.2 ppm
- H2O2 [1, 13]: 8.1 ppm
- reduction in 3 h [2, 14]: 1.2-3.5 1 g cfu/mL
- reduction in 24 h [2, 14]: 5.5 1 g cfu/mL
- reduction in 3 h [2, 15]: 3.3-4.0 1 g cfu/mL
- reduction in 24 h [2, 15]: 3.7-5.5 1 g cfu/mL
- amount alone required to achieve 1 g cfu/mL reduction of 4.2 ([2]; Example 4): ≥ 150 ppm
- 3 h Reduction [2, 16]: 1.2 lg cfu/mL
- 24 h Reduction [2, 16]: 5.5 lg cfu/mL
- 3 h Reduction [2, 17]: 3.5 lg cfu/mL
- 24 h Reduction [2, 17]: 5.5 lg cfu/mL
- 3 h Reduction [2, 18]: 4.0 lg cfu/mL
- 24 h Reduction [2, 18]: 4.5 lg cfu/mL
- 3 h Reduction [2, 19]: 4.2 lg cfu/mL
- 24 h Reduction [2, 19]: 3.7 lg cfu/mL
- 3 h Reduction [2, 20]: 3.3 lg cfu/mL
- 24 h Reduction [2, 20]: 5.0 lg cfu/mL
- reduction ([3]; P. aeruginosa grown up in 830 ppm sulfite diluted to 8.3 ppm during application): 1.5 1 g cfu/mL
- reduction ([3]; P. aeruginosa grown up in the absence of sulfite): 0.9 1 g cfu/mL
- 3 h Reduction ([3]; Table 5 Test No. 4: sulfite 0 ppm, peroxide 50 ppm): 0.9 lg cfu/mL
- Indicated Species H2O2 [4, 21]: 2.1 ppm
- Indicated Species H2O2 [4, 22]: 1.9 ppm
- Indicated Species H2O2 [4, 23]: 2.3 ppm
- Indicated Species H2O2 [4, 24]: 1.8 ppm
- Indicated Species H2O2 [4, 25]: 1.8 ppm
- Indicated Species H2O2 [4, 26]: 1.4 ppm
- H2O2 residue [4, 27]: ~1.6 ppm

Structure (SMILES): [Na+].[O-]Cl [NaOCl]
- Free active halogen DPD (as Cl2) [4, 24]: 0.0 ppm
- Indicated Species NaOCl (as Cl2) [4, 24]: 0.0 ppm
- Total active halogen DPD (as Cl2) [4, 24]: 0.0 ppm
- Indicated Species NaOCl (as Cl2) [4, 25]: 0.0 ppm
- Indicated Species NaOCl (as Cl2) [4, 26]: 0.0 ppm
- free chlorine after combination [4, 27]: no detectable free chlorine

Structure (SMILES): O=S([O-])[O-].[Na+].[Na+] [Sulfite, sodium sulfite]
- Sulfite (as H2O2) [1, 5]: 3.1 ppm
- Sulfite (as SO3^2−) ([1]; pH 6.7, 21° C., start 40 ppm sulfite + 20.0 ppm H2O2, 15 min after mixing): 7.2 ppm
- Sulfite (as H2O2) [1, 6]: 2.3 ppm
- Sulfite (as SO3^2−) ([1]; pH 6.7, 21° C., start 40 ppm sulfite + 20.0 ppm H2O2, 30 min after mixing): 5.4 ppm
- Sulfite (as H2O2) [1, 7]: 0.0 ppm
- Sulfite (as SO3^2−) ([1]; pH 6.7, 21° C., start 40 ppm sulfite + 20.0 ppm H2O2, 60 min after mixing): 0.0 ppm
- Sulfite (as H2O2) [1, 8]: 7.9 ppm
- Sulfite (as SO3^2−) [1, 8]: 18.7 ppm
- Sulfite (as H2O2) [1, 9]: 6.8 ppm
- Sulfite (as SO3^2−) [1, 9]: 16.0 ppm
- Sulfite (as H2O2) [1, 10]: 6.7 ppm
- Sulfite (as SO3^2−) [1, 10]: 15.7 ppm
- Sulfite (as H2O2) [1, 11]: 6.2 ppm
- Sulfite (as SO3^2−) [1, 11]: 14.6 ppm
- Sulfite (as H2O2) [1, 12]: 5.2 ppm
- Sulfite (as SO3^2−) [1, 12]: 12.3 ppm
- Sulfite (as H2O2) [1, 13]: 0.1 ppm
- Sulfite (as SO3^2−) [1, 13]: 0.3 ppm
- effect on bacterial populations ([2]; Example 3, sulfite alone at 32-128 ppm): no significant effect
- amount alone required to achieve 1 g cfu/mL reduction of 4.2 ([2]; Example 4): > 512 ppm
- effect on the microbial populations ([2]; Example 4, sulfite at 128-512 ppm): no significant effect
- 3 h Reduction [2, 28]: −0.40 lg cfu/mL
- 24 h Reduction [2, 28]: 0.11 lg cfu/mL
- 3 h Reduction [2, 29]: −0.50 lg cfu/mL
- 24 h Reduction [2, 29]: −0.45 lg cfu/mL
- 3 h Reduction [2, 30]: 0.32 lg cfu/mL
- 24 h Reduction [2, 30]: 0.11 lg cfu/mL
- 3 h Reduction [2, 31]: 0.08 lg cfu/mL
- 24 h Reduction [2, 31]: −0.45 lg cfu/mL
- 3 h Reduction ([3]; Table 5 Test No. 2: sulfite 8.3 ppm, peroxide 0 ppm): 0.1 lg cfu/mL
- 3 h Reduction ([3]; Table 5 Test No. 3: sulfite 0.83 ppm, peroxide 0 ppm): 0.0 lg cfu/mL

Structure (SMILES): CC1(C)C(=O)NC(=O)N1Cl [DMH stabilized NaOCl, 1-chloro-5,5-dimethylhydantoin]
- Free active halogen DPD (as Cl2) [4, 21]: 0.0 ppm
- Indicated Species DMH stabilized NaOCl (as Cl2) [4, 21]: 0.9 ppm
- Total active halogen DPD (as Cl2) [4, 21]: 0.9 ppm
- Free active halogen DPD (as Cl2) [4, 22]: 0.0 ppm
- Indicated Species DMH stabilized NaOCl (as Cl2) [4, 22]: 1.0 ppm
- Total active halogen DPD (as Cl2) [4, 22]: 1.0 ppm
- Free active halogen DPD (as Cl2) [4, 32]: 0.0 ppm
- Indicated Species DMH stabilized NaOCl (as Cl2) [4, 32]: 0.9 ppm
- Total active halogen DPD (as Cl2) [4, 32]: 0.9 ppm
- Free active halogen DPD (as Cl2) [4, 23]: 0.0 ppm
- Indicated Species DMH stabilized NaOCl (as Cl2) [4, 23]: 0.9 ppm
- Total active halogen DPD (as Cl2) [4, 23]: 0.9 ppm
